Experimental data from the supplement of paper PMC10307832.

Columns and labels:
Test in all cases: relative viability (nuclei count vs DMSO), 5 days (fraction); higher = more cells survive
Pictilisib + Luminespib = compound: CS(=O)(=O)N1CCN(Cc2cc3nc(-c4cccc5[nH]ncc45)nc(N4CCOCC4)c3s2)CC1 [Pictilisib] + CCNC(=O)c1noc(-c2cc(C(C)C)c(O)cc2O)c1-c1ccc(CN2CCOCC2)cc1 [Luminespib] (partner 0.01 µM)
Outline: (§1)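 One day after seeding in 1536-well plates, lung cancer cell lines were dosed by pin tool. Dosing was either single-drug or a fixed anchor-drug dose plus five library-drug doses (not always all listed) in √10 steps. After 5 days, nuclei were stained in one fix-and-stain step and counted on 4× images, and relative viability is the nuclei count of treated wells over that of vehicle wells, given as the median of duplicate plates.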

MK-2206 + Foretinib = compound: NC1(c2ccc(-c3nc4ccn5c(=O)[nH]nc5c4cc3-c3ccccc3)cc2)CCC1 [MK-2206] + COc1cc2c(Oc3ccc(NC(=O)C4(C(=O)Nc5ccc(F)cc5)CC4)cc3F)ccnc2cc1OCCCN1CCOCC1 [Foretinib] (partner 0.25 µM)
Outline: as §1

MK-2206 + Vorinostat = compound: NC1(c2ccc(-c3nc4ccn5c(=O)[nH]nc5c4cc3-c3ccccc3)cc2)CCC1 [MK-2206] + O=C(CCCCCCC(=O)Nc1ccccc1)NO [Vorinostat] (partner 1 µM)
Outline: as §1

MK-2206 + Olaparib = compound: NC1(c2ccc(-c3nc4ccn5c(=O)[nH]nc5c4cc3-c3ccccc3)cc2)CCC1 [MK-2206] + O=C(c1cc(Cc2n[nH]c(=O)c3ccccc23)ccc1F)N1CCN(C(=O)C2CC2)CC1 [Olaparib] (partner 8 µM)
Outline: as §1

MK-2206 + Lapatinib = compound: NC1(c2ccc(-c3nc4ccn5c(=O)[nH]nc5c4cc3-c3ccccc3)cc2)CCC1 [MK-2206] + CS(=O)(=O)CCNCc1ccc(-c2ccc3ncnc(Nc4ccc(OCc5cccc(F)c5)c(Cl)c4)c3c2)o1 [Lapatinib] (partner 2 µM)
Outline: as §1

Cell Line	relative viability (Pictilisib + Luminespib; first compound 0.02 µM)	relative viability (Pictilisib + Luminespib; first compound 0.06325 µM)	relative viability (Pictilisib + Luminespib; first compound 0.6325 µM)	relative viability (Pictilisib + Luminespib; first compound 2 µM)	relative viability (MK-2206 + Foretinib; first compound 0.01 µM)	relative viability (MK-2206 + Foretinib; first compound 0.03162 µM)	relative viability (MK-2206 + Foretinib; first compound 0.3162 µM)	relative viability (MK-2206 + Foretinib; first compound 1 µM)	relative viability (MK-2206 + Vorinostat; first compound 0.01 µM)	relative viability (MK-2206 + Vorinostat; first compound 0.3162 µM)	relative viability (MK-2206 + Vorinostat; first compound 1 µM)	relative viability (MK-2206 + Olaparib; first compound 0.01 µM)	relative viability (MK-2206 + Olaparib; first compound 0.3162 µM)	relative viability (MK-2206 + Olaparib; first compound 1 µM)	relative viability (MK-2206 + Lapatinib; first compound 0.01 µM)	relative viability (MK-2206 + Lapatinib; first compound 0.03162 µM)	relative viability (MK-2206 + Lapatinib; first compound 0.3162 µM)	relative viability (MK-2206 + Lapatinib; first compound 1 µM)	relative viability (MK-2206 + Vorinostat; first compound 0.03162 µM)	relative viability (MK-2206 + Olaparib; first compound 0.03162 µM)
SW 900	0.183	0.15	0.163	0.158	0.864	0.936	0.882	0.769	0.527	0.554	0.299	0.79	0.874	0.885						
PC-3 [JPC-3]	0.604	0.775	0.509	0.462	1.05	1.12	0.99	1.04	0.796	0.826	0.755	1.09	1.18	1.12	0.469	0.457	0.437	0.441	0.691	1.12
NCI-H1703					0.368	0.309	0.377	0.333				0.444	0.443	0.407	1.24	0.959	0.71	0.571		0.426
EPLC-272H	0.213	0.424	0.184	0.207	0.811	0.686	0.649	0.633	0.513	0.482	0.435	0.855	0.796	0.527	1.06	0.916		1.33	0.401	0.673
NCI-H1792	0.366	0.41	0.25	0.225								0.497	0.532	0.264	0.84	0.983	0.909	0.92		0.514
NCI-H2085	0.44	0.431	0.409	0.265	0.921	1.07	1	0.735	0.693	0.751	0.653	0.778	0.786	0.732	0.773	0.81	0.605	0.467	0.754	0.858
LK-2	0.198	0.144	0.152	0.188	1.57	1.19	1.34	1.39	0.26	0.334	0.221	0.822	0.664	0.467	1.03	1.05	0.863	0.854	0.287	0.852
NCI-H1395	0.704	0.838	0.748	0.534	1.03	0.966	0.885	0.922	0.713	0.574	0.576	0.492	0.418	0.411	1.01	1.3	0.774	0.759	0.667	0.49
ABC-1	0.514	0.583	0.394	0.545	1.16	0.965	1.17	1.07	0.78	1.08	1.11	0.898	1.1	1.08	1.32	1.29	1.08	1.13	1.04	0.841
RERF-LC-KJ	1.23	1.29	1	0.855	0.868	0.861	0.82	0.77	0.651	0.603	0.62	0.885	0.874	0.81	0.871	0.902	0.723	0.787	0.741	0.93
LU99A	0.254	0.228	0.251	0.204	0.805	0.774	0.847	0.816	0.456	0.473	0.49	0.283	0.251	0.287	1.05	0.871	0.904	0.877	0.529	0.231
NCI-H650	0.759	0.809	0.802	0.483	0.935	1.13	1.05	1.13	0.455	0.345	0.428	0.4	0.383	0.391	0.985	1.07	0.874	0.721	0.414	0.362
NCI-H2347	0.444	0.518	0.423	0.264	0.877	0.818	1.15	0.723	0.641	0.645	0.555	0.618	0.58	0.503	0.845	1.06	0.887	0.953	0.581	0.541
HARA	0.767	0.622	0.113	0.166	0.944	0.951	0.929	0.809	0.391	0.455	0.59	0.842	0.758	0.625	0.774	0.81	0.567	0.51	0.539	0.779
NCI-H2228	0.12	0.184	0.129	0.121	0.761	0.811	0.614	0.467	0.741	0.588	0.386	0.832	0.464	0.417	1.12	1.01	0.641	0.373	0.857	0.594
EKVX	0.875	0.942	0.833	0.408	0.877	0.673	0.855	0.387	0.681	0.648	0.693	0.866	0.745	0.67	0.2	0.207	0.17	0.179	0.684	0.777
